Results from patent publication US7560591B2, “Benzamidine derivatives having anti-inflammatory and immunosuppressive activity” (Rotta Research Laboratorium S.p.A., priority 2001, dated 2009).
Read-outs that look alike come from different tables or passages of the source.

System: extravasation in the ears of mice
Experiment: Extravasation (Evans Blu) induced by phlogogenic agents in the ears of mice
Assay type: in vivo
Conditions: for % inhibition of extravasation, PAF: 1 h; for % inhibition of extravasation, Zymosan: 2 h; for % inhibition of extravasation, Arachidonic Acid / % inhibition of extravasation, Bradykinin / % inhibition of extravasation, Histamine: 30 min; for ED50: OS, mouse ear
Description: b) Some of the compounds of the invention, such as compounds I-4, I-11 and I-31, were evaluated in vivo in a series of experimental extravasation models in which 5 μl of the preselected phlogogenic agent dissolved in physiological solution was injected intradermally into the ears of mice as described by Erdo et al., with slight modifications [Agents and Actions 39, 137-142 (1993)].
The products under test were administered orally 1 hour before the challenge and, 30 minutes before the challenge, the dye Evans Blu was injected intravenously in a dose of 100 mg/kg. The animals were killed at a time predetermined according to the test, 30 min.—2 hours after the challenge. The extravasation was evaluated by determining the quantity of dye present in the ear, extracted after homogenisation of the tissue in 2 ml of formamide and incubation at 50° C. for 2 hours. After centrifuging, the amount of dye was determined by measuring the absorption at 620 nm. The maximum % effect (% MPE) was calculated by the following formula:
[formula] in which EV is the mean absorption observed in the group of animals treated solely with the phlogogenic agent, ED is the group treated with the phlogogenic agent and the drug, and EB is the base value, that is, the value for the animals injected with physiological solution alone.
The phlogogenic agents used were:
Arachidonic acid (dissolved in EtOH); (1 mg/mouse; killed+30 min); histamine (3 nmoli/mouse; killed+30 min); PAF (30 pmoli/mouse; killed+60 min); Zymosan (10 μg/mouse; killed+120 min); bradykinin (0.6 nmoli/mouse; killed+30 min).

CCCCCNC(=S)Nc1ccc(NC(C)=N)cc1 [Compound I-4, N-[4-(N-acetamidine)phenyl]-N′-pentyl Thiourea]
% inhibition of extravasation, PAF (2.5 mg/kg OS, PAF): 41.9% | % inhibition of extravasation, Zymosan (2.5 mg/kg OS, Zymosan): 40.0% | % inhibition of extravasation, Arachidonic Acid (5 mg/kg OS): 37.8% | % inhibition of extravasation, Bradykinin (5 mg/kg OS): 30.1% | % inhibition of extravasation, Histamine (5 mg/kg OS): 17.8% | % inhibition of extravasation, PAF (5 mg/kg OS, PAF): 49.9% | % inhibition of extravasation, Zymosan (5 mg/kg OS, Zymosan): 66.6% | % inhibition of extravasation, Arachidonic Acid (10 mg/kg OS): 40.0% | % inhibition of extravasation, Bradykinin (10 mg/kg OS): 30.7% | % inhibition of extravasation, Histamine (10 mg/kg OS): 27.7% | % inhibition of extravasation, PAF (10 mg/kg OS, PAF): 55.1% | % inhibition of extravasation, Zymosan (10 mg/kg OS, Zymosan): 65.8% | % inhibition of extravasation, Arachidonic Acid (20 mg/kg OS): 52.6% | % inhibition of extravasation, Bradykinin (20 mg/kg OS): 49.1% | % inhibition of extravasation, Histamine (20 mg/kg OS): 38.8% | % inhibition of extravasation, PAF (20 mg/kg OS, PAF): 56.4% | % inhibition of extravasation, Zymosan (20 mg/kg OS, Zymosan): 83.9% | % inhibition of extravasation, Arachidonic Acid (40 mg/kg OS): 55.5% | % inhibition of extravasation, Bradykinin (40 mg/kg OS): 51.3% | % inhibition of extravasation, Histamine (40 mg/kg OS): 52.5% | % inhibition of extravasation, PAF (40 mg/kg OS, PAF): 66.2% | % inhibition of extravasation, Zymosan (40 mg/kg OS, Zymosan): 89.8% | % inhibition of extravasation, Zymosan (80 mg/kg OS, Zymosan): 95.5% | inhibition at 5 mg/kg (Mus musculus, 5 mg/kg, models other than Zymosan, read-out: mean inhibitory effect in the other extravasation models): ~35% | ED50 (PAF, read-out: ED50, extravasation induced by PAF): 6.1 mg/kg | ED50 (Zymosan, read-out: ED50, extravasation induced by Zymosan): 3.1 mg/kg | ED50 (arachidonic acid, read-out: ED50, extravasation induced by AA (arachidonic acid)): 20.5 mg/kg | ED50 (bradykinin, read-out: ED50, extravasation induced by Bradykinin): 32.6 mg/kg | ED50 (histamine, read-out: ED50, extravasation induced by Histamine): 37 mg/kg
